From patent US12473264B2, “Inhibitors of erythrocyte band 3 tyrosine phosphorylation and uses thereof” (Purdue Research Foundation, priority 2019, dated 2025)
Like-named read-outs stand apart in the source and are kept apart here.

Columns and labels:
Syk = Syk (Homo sapiens, UniProt P43405); test: ADP-Glo kinase inhibition assay, Syk; type: biochemical
Description: Syk kinase inhibition assays were run on 96-well plates using the ADP-Glo assay kit according to manufacturer's specifications. All kinase reactions were run using Kinase Assay Buffer III supplemented with DTT and MnCl2 as required by the kinase of interest to generate kinase reaction buffer. Stock solutions of kinase inhibitor in DMSO were diluted into 2× kinase reaction buffer and the final concentration of DMSO in each kinase reaction was held below 1%. […] Kinase inhibitors were incubated with kinase and substrate prior to addition of ATP for 20 min at room temperature (RT). After addition of ATP to the wells, the plate was incubated at 37° C. for 30-60 minutes depending on the kinase used. After incubation the plate was cooled to RT for 5 minutes prior to addition of 25 μL ADP-Glo reagent and incubation on a shaker for 40 minutes. After 40 minutes, 50 μL Kinase Detection reagent were added and the plate was protected from light while incubated on a shaker. After 30 min, the luminescence was recorded using a Neo2 plate reader and 1 sec integration of the signal. The background signal was subtracted from all readings and the signal was normalized to the maximum signal obtained in the absence of inhibitor. Data were plotted and inhibition curves fit using Graphpad software.

EGFR = EGFR (Homo sapiens, UniProt P00533); test: ADP-Glo kinase assay, EGFR; type: biochemical
Description: (§1) Syk kinase inhibition assays were run on 96-well plates using the ADP-Glo assay kit according to manufacturer's specifications. All kinase reactions were run using Kinase Assay Buffer III supplemented with DTT and MnCl2 as required by the kinase of interest to generate kinase reaction buffer. Stock solutions of kinase inhibitor in DMSO were diluted into 2× kinase reaction buffer and the final concentration of DMSO in each kinase reaction was held below 1%. The total volume of each kinase reaction was 25 μL apportioned as: 5 μL 2× kinase reaction buffer or diluted kinase inhibitor, 5 μL 1 mg/mL (stock) kinase substrate, 10 μL kinase in kinase reaction buffer, and 5 μL 250 μM ATP diluted into kinase reaction buffer. Kinase inhibitors were incubated with kinase and substrate prior to addition of ATP for 20 min at room temperature (RT). After addition of ATP to the wells, the plate was incubated at 37° C. for 30-60 minutes depending on the kinase used. After incubation the plate was cooled to RT for 5 minutes prior to addition of 25 μL ADP-Glo reagent and incubation on a shaker for 40 minutes. […] After 30 min, the luminescence was recorded using a Neo2 plate reader and 1 sec integration of the signal. The background signal was subtracted from all readings and the signal was normalized to the maximum signal obtained in the absence of inhibitor. […]

SRC = SRC (Homo sapiens, UniProt P12931); test: ADP-Glo kinase assay, SRC; type: biochemical; conditions: FIG. 6B
Description: as §1

ZAP70 = molecular target: T1, ZAP70 (Homo sapiens, UniProt P43403); test: ADP-Glo kinase assay, ZAP70; type: biochemical; conditions: FIG. 6B
T1 sequence (P43403 1-619): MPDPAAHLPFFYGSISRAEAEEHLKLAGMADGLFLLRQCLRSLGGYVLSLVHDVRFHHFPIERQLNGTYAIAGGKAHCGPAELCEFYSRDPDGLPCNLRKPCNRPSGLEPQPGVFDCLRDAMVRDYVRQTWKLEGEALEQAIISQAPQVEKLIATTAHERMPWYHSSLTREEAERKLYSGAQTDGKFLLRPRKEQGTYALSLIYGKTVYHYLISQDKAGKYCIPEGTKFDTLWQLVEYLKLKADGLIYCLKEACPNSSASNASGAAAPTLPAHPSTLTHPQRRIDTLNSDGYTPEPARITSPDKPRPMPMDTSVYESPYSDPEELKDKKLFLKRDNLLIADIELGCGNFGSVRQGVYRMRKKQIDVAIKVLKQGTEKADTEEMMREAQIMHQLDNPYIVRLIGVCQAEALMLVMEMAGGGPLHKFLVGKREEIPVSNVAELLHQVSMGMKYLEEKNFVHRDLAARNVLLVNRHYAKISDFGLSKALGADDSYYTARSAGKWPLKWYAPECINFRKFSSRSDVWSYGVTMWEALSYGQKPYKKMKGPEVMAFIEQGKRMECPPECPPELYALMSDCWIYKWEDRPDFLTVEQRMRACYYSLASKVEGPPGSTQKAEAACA
Description: as §1

Lyn A = Lyn A (Homo sapiens, UniProt P07948); test: ADP-Glo kinase assay, Lyn A; type: biochemical; conditions: FIG. 6B
Description: as §1

[1] = tested on: Syk phosphorylation of Band 3; test: Band 3 tyrosine phosphorylation induced in healthy donor RBCs by OV (Western blot); type: cell-based; conditions: Homo sapiens; healthy donor RBCs treated with OV; read-out: in vitro IC50 against Syk phosphorylation of Band 3
Description: (§2) RBC ghosts were then prepared by mixing 150 μL of packed RBCs with 1500 μL of ice-cold ghost buffer (5 mM Na2HPO4, 1 mM EDTA, pH 8.0, containing 1 mM phenylmethylsulfonyl fluoride (PMSF) and 1% phosphatase cocktail inhibitors 2 and 3) and allowed to sit on ice for 30 min. Samples were centrifuged at 13000 rpm for 15 min at 4° C. and supernatants were removed. Ghost pellets were washed an additional 3×, after which 10 μL was removed for determination of protein concentration using Pierce™ Rapid Gold BCA Protein Assay (Thermo Fisher Scientific, A53226). Residual ghosts were solubilized in 4× Laemmli buffer (Bio-Rad) at a concentration of 1 […] and warmed to 30° C. for 30 min prior to storage at −20° C. until use.
(§3) Band 3 tyrosine phosphorylation was quantitated by loading 30 μL of each thawed sample onto a 10% SDS-PAGE gel and separating at 90, 120 and 150 V for 30, 45 and 20 minutes, respectively. Proteins were then transferred to a nitrocellulose membrane at 100 V for 2 hours, after which membranes were immunostained with anti-phosphotyrosine (1:1000, Cell Signaling, Inc.) or anti-actin (1:20000) antibodies dissolved in TBST (25 mM Tris, 140 mM NaCl, 3 mM KCl, 0.05% v/v Tween-20) containing 5% w/v milk. […] Band 3 tyrosine phosphorylation intensity/densitometry was quantitated using image J software.

healthy donor human RBCs = test: Hemolysis (Hb release) induced by phosphatase inhibitors in healthy donor human RBCs; type: cell-based
Excerpt: (§4) Cayman's hemoglobin colorimetric assay was used to quantitate the level of cell-free plasma hemoglobin in both patient plasma samples and in the above kinase-treated RBC supernatant samples according to the manufacturer's instruction.

SCD patient RBCs [2] = test: Free plasma hemoglobin in SCD patient samples; type: cell-based, human; conditions: 1 μM S701, SCD patient samples
Description: (§5) For evaluation of the effect of tyrosine kinase inhibitors on release of RBC-derived MPs from sickle cells suspended at 30% Hct in PBS-G, 500 μL washed RBCs were treated for 1 hour with the desired concentration of tyrosine kinase inhibitor or vehicle control, and then shaken at 1400 RPM for 4 h. Newly released microparticles were then separated from residual RBCs by centrifuging at 800 rcf for 10 minutes, collecting the supernatant, and analyzing the supernatant for RBC-derived MPs as described above.
as §4

SCD patient RBCs [3] = test: Erythrocyte-derived microparticle release in SCD patient samples; type: cell-based, human; conditions: SCD patient samples incubated with 1 μM S701 (untreated SCD 18, healthy seven)
Description: Plasma from sickle cell samples (see above) was centrifuged 2× at 2500 rcf for 15 minutes to remove platelets and 100 μL of supernatant containing MPs was incubated for 20 minutes on ice with 0.5 μL of BV421 mouse-anti-human 235a antibody (anti-glycophorin A; BD Biosciences #562938). Samples were diluted with 1000 μL of stain buffer (BD Biosciences #554656), transferred to BD Trucount™ tubes (BD Biosciences #340334) and analyzed on an Attune NxT Flow Cytometer by utilizing violet fluorescent trigger channel. The absolute number of RBC-derived microparticles was then calculated using the following formula,
as §5

SCD patient RBCs [4] = test: RBC velocity through microfluidic capillary; type: cell-based, human; conditions: concentrations as low as 50 nM, various levels of oxygenation
Description: Microfluidic capillary devices were fabricated with polydimethylsiloxane (PDMS) using standard soft photolithography techniques. Capillaries were constructed with a straight channel (w=75 μm, h=6.52 μm) containing a constriction (wc=5 μm and h=6.52 μm). To control the oxygen level inside the channel, the microfluidic device was submerged in a customized glass chamber filled with sodium sulfite solution (0M, 0.01M, 0.1M or 1M) (Sigma-Aldrich). The oxygen level was calibrated using 25 μM of tris(2,2′-bipyridyl)dichlororuthenium(II) hexahydrate (an O2 indicator, Sigma-Aldrich) then converted into a PO2 value using the Stern-Volmer equation, I0/I=1+PO2×Kq, where I^0 is the maximum fluorescence intensity and Kq is the quenching constant. The calibration results are obtained.
Sickle cell blood samples were obtained from five patients (n=5, age 4-9 years old) and RBCs were isolated by centrifugation. […] For quantitation of RBC velocity in a microfluidic capillary, the RBC suspension was injected into the capillary at a constant pressure of 1.6 psi, and the velocity of the RBCs in the constriction was recorded using a high-speed video camera (Phantom Miro M120, 1900 frames per second) mounted on an inverted microscope (Leica DMI 6000B). Data were analyzed using Phantom Camera Control software.

phosphorylated Band 3 = test: Band 3 tyrosine phosphorylation in SCD RBC lysates (Western blot); type: cell-based, human; conditions: 1 μM S701, SCD RBC lysates, anti-pY Western blot
Description: as §2, §3

EGFR, sequence (P00533 25-1210): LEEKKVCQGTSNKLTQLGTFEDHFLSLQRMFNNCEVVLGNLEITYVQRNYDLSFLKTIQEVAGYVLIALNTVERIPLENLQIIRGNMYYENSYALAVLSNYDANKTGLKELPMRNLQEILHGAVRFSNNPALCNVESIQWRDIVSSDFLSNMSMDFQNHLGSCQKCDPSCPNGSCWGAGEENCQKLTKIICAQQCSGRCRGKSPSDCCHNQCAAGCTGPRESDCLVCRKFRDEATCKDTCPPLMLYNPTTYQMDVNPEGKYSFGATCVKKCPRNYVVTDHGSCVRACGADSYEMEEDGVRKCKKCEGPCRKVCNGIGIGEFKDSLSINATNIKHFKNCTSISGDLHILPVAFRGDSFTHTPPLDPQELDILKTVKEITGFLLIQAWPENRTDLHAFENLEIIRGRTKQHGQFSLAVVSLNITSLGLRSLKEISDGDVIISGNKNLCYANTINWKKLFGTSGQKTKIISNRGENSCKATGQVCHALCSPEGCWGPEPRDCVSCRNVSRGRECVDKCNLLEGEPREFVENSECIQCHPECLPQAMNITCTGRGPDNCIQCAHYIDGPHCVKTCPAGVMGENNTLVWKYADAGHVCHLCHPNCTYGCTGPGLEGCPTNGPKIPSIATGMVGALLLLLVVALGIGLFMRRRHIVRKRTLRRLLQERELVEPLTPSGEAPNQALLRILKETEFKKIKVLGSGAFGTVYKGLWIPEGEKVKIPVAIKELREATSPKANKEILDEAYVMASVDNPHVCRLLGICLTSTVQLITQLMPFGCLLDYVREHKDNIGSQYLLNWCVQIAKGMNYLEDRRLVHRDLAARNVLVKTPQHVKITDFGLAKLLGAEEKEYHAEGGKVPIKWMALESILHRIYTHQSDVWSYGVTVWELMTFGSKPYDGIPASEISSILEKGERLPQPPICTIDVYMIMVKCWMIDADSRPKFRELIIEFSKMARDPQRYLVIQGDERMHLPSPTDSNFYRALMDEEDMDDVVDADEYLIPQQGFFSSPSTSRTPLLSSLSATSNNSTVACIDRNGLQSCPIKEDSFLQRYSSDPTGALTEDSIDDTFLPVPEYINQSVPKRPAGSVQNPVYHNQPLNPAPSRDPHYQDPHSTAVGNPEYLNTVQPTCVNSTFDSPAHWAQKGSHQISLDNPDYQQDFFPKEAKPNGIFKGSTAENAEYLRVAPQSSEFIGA
Lyn A, sequence (P07948 whole entry): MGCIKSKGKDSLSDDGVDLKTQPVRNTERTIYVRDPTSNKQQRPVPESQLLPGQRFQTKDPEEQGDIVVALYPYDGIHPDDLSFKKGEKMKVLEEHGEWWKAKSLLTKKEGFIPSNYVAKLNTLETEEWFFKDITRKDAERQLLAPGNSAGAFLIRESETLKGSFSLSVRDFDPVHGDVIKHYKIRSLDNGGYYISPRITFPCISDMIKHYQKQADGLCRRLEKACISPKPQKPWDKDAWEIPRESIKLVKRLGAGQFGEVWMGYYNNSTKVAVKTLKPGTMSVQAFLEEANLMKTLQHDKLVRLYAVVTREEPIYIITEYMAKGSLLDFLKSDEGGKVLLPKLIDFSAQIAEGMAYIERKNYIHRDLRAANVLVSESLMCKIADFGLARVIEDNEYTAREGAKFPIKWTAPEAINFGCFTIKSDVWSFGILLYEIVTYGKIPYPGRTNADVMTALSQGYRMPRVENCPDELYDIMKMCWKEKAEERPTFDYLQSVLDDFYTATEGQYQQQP
SRC, sequence (P12931 whole entry): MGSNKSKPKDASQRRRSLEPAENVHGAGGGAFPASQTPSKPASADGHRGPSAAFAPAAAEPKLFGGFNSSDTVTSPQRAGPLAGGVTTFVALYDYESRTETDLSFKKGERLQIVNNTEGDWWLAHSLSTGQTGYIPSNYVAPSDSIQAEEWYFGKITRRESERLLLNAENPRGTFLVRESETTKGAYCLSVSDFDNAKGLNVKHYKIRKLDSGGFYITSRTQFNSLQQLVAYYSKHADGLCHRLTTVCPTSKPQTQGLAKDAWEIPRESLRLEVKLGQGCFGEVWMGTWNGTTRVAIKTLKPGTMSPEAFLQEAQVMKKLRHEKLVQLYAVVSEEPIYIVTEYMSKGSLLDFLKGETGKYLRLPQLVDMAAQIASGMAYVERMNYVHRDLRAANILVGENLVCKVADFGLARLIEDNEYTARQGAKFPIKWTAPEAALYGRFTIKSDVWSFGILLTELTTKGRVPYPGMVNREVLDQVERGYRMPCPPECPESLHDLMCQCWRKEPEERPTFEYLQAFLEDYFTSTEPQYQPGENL

Row | Structure (SMILES) | Syk inhibition compared to S701 (Syk; FIG. 6B) | inhibitory effect on EGFR (EGFR) | inhibitory effect on SRC (SRC) | inhibitory effect on ZAP 70 (ZAP70) | inhibitory effect on Lyn A (Lyn A) | IC50 (Syk; cell-free) | IC50 [1] | percent inhibition of hemolysis at 5 µM (healthy donor human RBCs; 5 μM S701, Diamide, read-out: inhibition of hemolysis, Diamide) | percent inhibition of hemolysis at 5 µM (healthy donor human RBCs; 5 μM S701, Phenylhydrazine, read-out: inhibition of hemolysis, Phenylhydrazine) | percent inhibition of hemolysis at 5 µM (healthy donor human RBCs; 5 μM S701, phosphatase inhibitor OV, read-out: inhibition of hemolysis, OV) | decrease of concentration of free plasma hemoglobin (SCD patient RBCs [2]) | number of MPs released per μL of plasma (SCD patient RBCs [3]) | RBC velocity through a 5 μm tube (SCD patient RBCs [4]) | phosphorylated Band 3 (phosphorylated Band 3)
1 | COc1ccc(Nc2nc(Nc3cccc4[nH]ccc34)ncc2F)c(-c2ccc(O)c(O)c2)c1 [S602, 2′-((2-((1H-indol-4-yl)amino)-5-fluoropyrimidin-4-yl)amino)-5′-methoxy-[1,1′-biphenyl]-3,4-diol] | even better IC50 value for inhibiting Syk as compared to S701 | very significantly higher concentrations to have an impact | very significantly higher concentrations to have an impact | very significantly higher concentrations to have an impact | very significantly higher concentrations to have an impact |  |  |  |  |  |  |  |  | 
2 | COc1cc(Nc2ncc(F)c(NC(=O)c3cc(O)c(O)c(O)c3)n2)cc(OC)c1OC [S701, N-(5-fluoro-2-((3,4,5-trimethoxyphenyl)amino)pyrimidin-4-yl)-3,4,5-trihydroxybenzamide] |  | has to be in really high concentrations to have any inhibitory effect |  |  |  | 581 nM | ~5000 nM | 50% | 44% | 25% | 47% | five | increased RBC velocity | notable decrease in phosphorylated Band 3
